In the supplement of paper PMC11368000:

How the values were obtained:
Settings in all cases: exposure time: 90 min
1083 [1] = donor line of iPSC-derived cardiomyocytes; test: POD (EC95) for loss of peak frequency (asystole) vs vehicle; higher = less potent (higher point of departure)
Procedure: (§1)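 Human iPSC-derived cardiomyocytes from 16 donors were exposed for 90 min at 37 °C to each PFAS at 0.1, 1, 10 and 100 µM in 0.5% DMSO, 384-well plates. Kinetic Ca2+ flux (FLIPR) and Hoechst nuclei counts were normalised to vehicle wells and fitted with a hierarchical Bayesian Hill model to give donor-specific PODs: EC05 for beat-rate increase or decrease and for decay-to-rise ratio increase (QT proxy), EC95 for peak-frequency loss (asystole), EC10 for total cell number loss. 0.03 µM is the lower bound.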

11235 [2] = donor line of iPSC-derived cardiomyocytes; test: as above
Procedure: as §1

1368 [3] = donor line of iPSC-derived cardiomyocytes; test: as above
Procedure: as §1

1434 [4] = donor line of iPSC-derived cardiomyocytes; test: as above
Procedure: as §1

1535 [5] = donor line of iPSC-derived cardiomyocytes; test: as above
Procedure: as §1

20032 [6] = donor line of iPSC-derived cardiomyocytes; test: as above
Procedure: as §1

20084 [7] = donor line of iPSC-derived cardiomyocytes; test: as above
Procedure: as §1

30145 = donor line of iPSC-derived cardiomyocytes; test: as above
Procedure: as §1

30171 = donor line of iPSC-derived cardiomyocytes; test: as above
Procedure: as §1

1083 [8] = test: POD (EC10) for decrease in total cell number (cytotoxicity) vs vehicle; higher = less potent (higher point of departure)
How it was run: (§2)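 Human iPSC-derived cardiomyocytes from 16 donors were cultured 14 days in 384-well plates, then exposed for 90 min at 37 °C to 0.1, 1, 10 and 100 µM (final, 0.5% DMSO). After the Ca2+ flux read, cells were stained 15 min with Hoechst 33342 (2.2 µg/mL) and MitoTracker Orange and imaged at 10× on an ImageXpress Micro Confocal. Nuclei were counted per field in MetaXpress. Donor-specific cytotoxicity points of departure came from hierarchical Bayesian Hill fits to vehicle-normalised counts, using a 10% decrease.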

1118 = donor line of iPSC-derived cardiomyocytes; test: as above
How it was run: as §2

11235 [9] = test: as above
How it was run: as §2

1368 [10] = test: as above
How it was run: as §2

1434 [11] = test: as above
How it was run: as §2

1518 = donor line of iPSC-derived cardiomyocytes; test: as above
How it was run: as §2

1531 = donor line of iPSC-derived cardiomyocytes; test: as above
How it was run: as §2

1535 [12] = test: as above
How it was run: as §2

1565 = donor line of iPSC-derived cardiomyocytes; test: as above
How it was run: as §2

20032 [13] = test: as above
How it was run: as §2

20084 [14] = test: as above
How it was run: as §2

Measured: POD vs vehicle

NC(=O)C(F)(F)C(F)(F)C(F)(F)C(F)(F)C(F)(F)C(F)(F)C(F)(F)F [Perfluorooctanamide]
> 100 µM: 1083 [1] | 11235 [2] | 1368 [3] | 1434 [4] | 1535 [5] | 20032 [6] | 20084 [7] | 30145 | 30171 | 1083 [8] | 1118 | 11235 [9] | 1368 [10] | 1434 [11] | 1518 | 1531 | 1535 [12] | 1565 | 20032 [13] | 20084 [14]

OCC(F)(F)C(F)(F)C(F)(F)CO [Hexafluoroamylene_glycol]
> 100 µM: 1083 [1] | 11235 [2] | 1368 [3] | 1434 [4] | 1535 [5] | 20032 [6] | 20084 [7] | 30145 | 30171 | 1083 [8] | 1118 | 11235 [9] | 1368 [10] | 1434 [11] | 1518 | 1531 | 1535 [12] | 1565 | 20032 [13] | 20084 [14]

CC(O)C(F)(F)C(F)(F)F (stereo not given) [1-Pentafluoroethylethanol]
> 100 µM: 1083 [1] | 11235 [2] | 1368 [3] | 1434 [4] | 1535 [5] | 20032 [6] | 20084 [7] | 30145 | 30171 | 1083 [8] | 1118 | 11235 [9] | 1368 [10] | 1434 [11] | 1518 | 1531 | 1535 [12] | 1565 | 20032 [13] | 20084 [14]

NC(=O)C(F)(F)C(F)(F)C(F)(F)C(F)(F)C(N)=O [Octafluoroadipamide]
> 100 µM: 1083 [1] | 11235 [2] | 1368 [3] | 1434 [4] | 1535 [5] | 20032 [6] | 20084 [7] | 30145 | 30171 | 1083 [8] | 1118 | 11235 [9] | 1368 [10] | 1434 [11] | 1518 | 1531 | 1535 [12] | 1565 | 20032 [13] | 20084 [14]

O=C(O)C(F)(F)OC(F)(F)C(F)(F)OC(F)(F)F [Perfluoro-3,6-dioxaheptanoic_acid]
> 100 µM: 1083 [1] | 11235 [2] | 1368 [3] | 1434 [4] | 1535 [5] | 20032 [6] | 20084 [7] | 30145 | 30171 | 1083 [8] | 1118 | 11235 [9] | 1368 [10] | 1434 [11] | 1518 | 1531 | 1535 [12] | 1565 | 20032 [13] | 20084 [14]
